For 4 compounds, IC50 results are on record in ChEMBL document CHEMBL4145550, “Synthesis of N-(1-(6-acetamido-5-phenylpyrimidin-4-yl) piperidin-3-yl) amide derivatives as potential inhibitors for mitotic kinesin spindle protein” (Eur J Med Chem, 2018).

In general, IC50 refers to the midpoint of a concentration-inhibition curve.

Test [1] deals with T1, Kinesin-like protein KIF11 (Homo sapiens, UniProt P52732).
T1 sequence (P52732 whole entry): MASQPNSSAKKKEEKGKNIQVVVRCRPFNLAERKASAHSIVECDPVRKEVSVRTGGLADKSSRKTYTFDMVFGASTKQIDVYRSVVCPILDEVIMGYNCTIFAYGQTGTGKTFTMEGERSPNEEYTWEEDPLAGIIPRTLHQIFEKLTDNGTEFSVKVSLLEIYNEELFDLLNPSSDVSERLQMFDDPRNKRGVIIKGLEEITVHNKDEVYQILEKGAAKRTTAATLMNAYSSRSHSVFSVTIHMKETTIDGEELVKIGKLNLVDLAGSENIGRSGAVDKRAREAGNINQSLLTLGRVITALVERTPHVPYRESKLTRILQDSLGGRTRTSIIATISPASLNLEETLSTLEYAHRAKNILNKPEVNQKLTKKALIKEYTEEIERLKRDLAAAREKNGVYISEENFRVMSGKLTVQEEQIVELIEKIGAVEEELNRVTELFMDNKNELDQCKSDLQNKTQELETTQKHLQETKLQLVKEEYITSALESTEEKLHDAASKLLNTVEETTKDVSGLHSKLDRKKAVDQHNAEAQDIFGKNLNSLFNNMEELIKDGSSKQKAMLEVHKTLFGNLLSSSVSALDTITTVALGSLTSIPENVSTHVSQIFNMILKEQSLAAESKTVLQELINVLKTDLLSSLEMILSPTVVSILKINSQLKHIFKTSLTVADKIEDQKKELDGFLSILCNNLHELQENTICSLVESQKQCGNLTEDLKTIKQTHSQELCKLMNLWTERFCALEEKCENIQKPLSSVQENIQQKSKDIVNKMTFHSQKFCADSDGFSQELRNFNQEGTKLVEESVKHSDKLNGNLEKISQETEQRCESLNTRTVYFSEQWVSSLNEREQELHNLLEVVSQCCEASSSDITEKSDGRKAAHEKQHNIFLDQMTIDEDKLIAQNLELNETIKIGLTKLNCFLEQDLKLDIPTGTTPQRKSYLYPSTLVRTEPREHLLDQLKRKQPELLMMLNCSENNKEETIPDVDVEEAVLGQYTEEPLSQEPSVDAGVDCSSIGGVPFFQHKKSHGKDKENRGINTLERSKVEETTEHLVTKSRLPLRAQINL
Put plainly: Inhibition of human mitotic kinesin Eg5 motor domain (1 to 368 residues) assessed as reduction in steady-state basal ATPase activity using ATP as substrate by pyruvate kinase/lactate dehydrogenase enzyme coupled assay.

Test [2] addresses T1, Kinesin-like protein KIF11. Put plainly: Inhibition of mitotic kinesin Eg5 (unknown origin).

As to `CC(=O)Nc1ncnc(N2CCCC(NC(=O)COc3cccc(Cl)c3)C2)c1-c1ccccc1` (centres undefined), the 50% inhibitory concentration (IC50) in test [1] is 9.03 µM.
Still for that read-out and setting: next, `CC(=O)Nc1ncnc(N2CCCC(NC(=O)Cc3cccc(F)c3)C2)c1-c1ccccc1` (centres undefined): 11.4 µM; `CC(=O)Nc1ncnc(N2CCCC(NC(=O)c3cccc(C(F)(F)F)c3)C2)c1-c1ccccc1` (centres undefined): 4.86 µM.
In the case of `COc1ccc(Nc2nc3cc(C(=O)O)ccc3n2Cc2ccccc2C(F)(F)F)cc1F`, half-maximal inhibition in test [2] (IC50) required 0.459 µM.
